According to ChEMBL document CHEMBL2407063, “Synthesis and in vitro cellular uptake of 11C-labeled 5-aminolevulinic acid derivative to estimate the induced cellular accumulation of protoporphyrin IX” (Bioorg Med Chem Lett, 2013):

Columns and labels:
ASPC1 [1] = assay: Cellular uptake in human AsPC1 cells at 15 MBq after 10 mins by gamma counting in presence of beta-transporter substrate GABA; assay type: ADME, cell-based; conditions: aspc1, 10 min
[2] = target: T1, Delta-aminolevulinic acid dehydratase (Homo sapiens, UniProt P13716); assay: Inhibition of ALAD (unknown origin)
T1 sequence (P13716 whole entry): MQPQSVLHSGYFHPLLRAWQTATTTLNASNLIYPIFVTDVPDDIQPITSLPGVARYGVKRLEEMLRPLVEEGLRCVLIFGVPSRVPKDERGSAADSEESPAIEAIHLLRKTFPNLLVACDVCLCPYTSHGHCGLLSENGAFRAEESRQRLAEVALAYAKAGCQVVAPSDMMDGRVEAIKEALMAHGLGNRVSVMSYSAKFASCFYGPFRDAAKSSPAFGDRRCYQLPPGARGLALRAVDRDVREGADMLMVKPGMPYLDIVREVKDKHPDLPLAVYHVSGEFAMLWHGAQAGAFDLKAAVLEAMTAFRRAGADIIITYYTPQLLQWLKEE

[3] = […] in mouse serum after 60 mins by HPLC analysis; assay type: ADME, cell-free
ASPC1 [4] = assay: Cellular uptake in human AsPC1 cells at 15 MBq after 10 mins by gamma counting in presence of PEPT1/2 substrate glycylsarcosine; assay type: ADME, cell-based; conditions: aspc1, 10 min
ASPC1 [5] = assay: Cellular uptake in human AsPC1 cells at 15 MBq after 10 mins by gamma counting in presence of aminolevulinic acid; assay type: ADME, cell-based; conditions: aspc1, 10 min
[6] = Protein binding in mouse serum by ultrafiltration method; assay type: ADME, cell-free; conditions: read-out: PB (converted)
ASPC1 [7] = assay: Cellular uptake in human AsPC1 cells at 15 MBq by gamma counting; assay type: ADME, cell-based; conditions: TDE = time-dependent effect

- Drug uptake (ASPC1 [1]): Not Active
- Ki [2]: 200 nM
- fraction unbound at 1 h [3]: 0.974
- Drug uptake (ASPC1 [4]): Not Active
- Drug uptake (ASPC1 [5]): Not Active
- fraction unbound [6]: 0.973
- Drug uptake (ASPC1 [7]): tde
SMILES: [11CH3]C(N)C(=O)CCC(=O)O (racemic)
